The target in data set [1] is VA387 VLPs binding to the A antigen. Description: Saliva-based blocking EIA: VA387 VLP binding to type A saliva. To be noted: read-out: EC50 rVA387 A. Further details: species or system Norovirus. The text has this:
(§1) A saliva based blocking assay offers several advantages for anti-Norovirus agent screening. First, the assay is a solid phase blocking assay which is simple and suitable for large scale screening. Second, the source of HBGAs used in the assay was from healthy human volunteers, which is likely to represent the natural forms of Norovirus receptors. Third, the assay is highly sensitive and specific. Finally, a panel of saliva samples can be assembled from different individuals representing different blood types, from which the results obtained in primary screenings can be validated.
(§2) To optimize the blocking assays, we have titrated all reagents used in the assays including the VLPs, the first and second antibodies, the blocking reagent (dried cow milk), and a panel of saliva samples from different donors. […] For comparison of daily results, eight control wells containing everything but compounds were included in each plate, and the assays were considered valid when the daily OD450 variations in these wells were less than 20%. Less than 1% of the total screening runs failed in our study.
(§3) Cow milk contains a large amount of variable proteins, lipids and glycans which can easily interfere with the assay particularly when a low concentration of compounds (μM) was used in our screening. To avoid any false-negative results, the step of addition of blotto in the EIA for all screening experiments in this study was removed.
(§4) Baculovirus-expressed recombinant capsid proteins of four Norovirus strains representing four distinct receptor binding patterns were studied: Norovirus strains Norwalk, VA387, VA207, and MOH. The procedures of production of Norovirus VLPs in insect cell Spodoptera frugiperda (Sf9) have described in “Expression, self-assembly, and antigenicity of the Norwalk virus capsid protein”, J Virol 66:6527-32, Jiang et al (1992), and in “Baculovirus expression and antigenic characterization of the capsid proteins of three Norwalk-like viruses”, Arch Virol 147:119-30, Jiang et al. (2002), the disclosures of which are incorporated herein by reference. Briefly, a cDNA from the 3′ end of the genome containing the viral capsid gene (open reading frame 2 [ORF-2] was cloned from the viral RNA extracted from stool specimens. The recombinant baculoviruses carry the viral capsid genes were constructed from the cloned cDNAs using the Bac to Bac expression system according to the manufacture's instructions (Invitrogen Life Technologies, Carlsbad, Calif.). VLPs were partially purified by sucrose gradient centrifugation and stored at −80° C. Protein concentrations were determined by measuring the optical density at 280 nm (OD280) using a GeneQuant spectrophotometer (Pharmacia, Mich.) and by comparison with a bovine serum albumin standard in a sodium dodecyl sulfate-polyacrylamide gel (25). The purity of VLPs used in this study was over 90% which was determined by SDS-PAGE analysis.
(§5) Saliva samples were collected from healthy adult volunteers under an approval of human subject research protocol by the Institutional Review Board at the Cincinnati Children's Hospital Medical Center. Except for gender and race, no other personal information was collected. A total of 5-10 ml of saliva was collected from each volunteer, and the samples were processed immediately after collection. To avoid potential Norovirus-specific antibodies that may interfere in the receptor binding assays, saliva samples were boiled at 100° C. for 10 min, and then centrifuged at 10,000×g for 5 min. The clear supernatant was stored at −80° C. until use. The HBGA types of the saliva samples were determined by enzyme immune assays with monoclonal antibodies specific to human HBGAs (8). Saliva sample from a type A donor was selected for the primary screening, and a total of 25 saliva samples of known ABO, secretor, and Lewis types were selected for further studies to confirm the primary screening results. […]

In data set [2] the target is MOH binding to the A antigen. Description: Saliva-based blocking EIA: MOH VLP binding to A antigen. To be noted: MOH VLP binding to type A saliva; read-out: EC50 rMOH A. Further details: species or system Norovirus.
Description: as §1, §2, §3, §4, §5

For data set [3], the system named is Norwalk virus binding to the H antigen. Description: Saliva-based blocking EIA: Norwalk virus VLP binding to H antigen. Further details: species or system Norovirus. To be noted: for pEC50: Norwalk VLP binding to H antigen, read-out: EC50 rNorwalk H.
Description: as §1, §2, §3, §4, §5

Data set [4] deals with Human cervical carcinoma cells (HeLa). As to the kind of experiment: MTS cytotoxicity assay, HeLa cells. In kind it is cell-based. To be noted: 3 days, average of three experiments.
In data set [5] the target is VA387 binding to the H antigen. As to the kind of experiment: Saliva-based blocking EIA: VA387 VLP binding to H antigen. Set-up: species or system Norovirus. To be noted: for pEC50: VA387 VLP binding to H antigen saliva, read-out: EC50 rVA387 H; for inhibition of VA387 binding to the H antigen: one saliva sample.
Description: as §1, §2, §3, §4, §5

Data set [6] addresses VA387 binding to the B antigen. Description: Saliva-based blocking EIA: VA387 VLP binding to B antigen. Further details: species or system Norovirus. To be noted: for pEC50: VA387 VLP binding to B antigen saliva, read-out: EC50 rVA387 B; for inhibition of VA387 binding to the B antigen: one saliva sample.
Description: as §1, §2, §3, §4, §5

The target in data set [7] is MOH binding to the B antigen. Description: Saliva-based blocking EIA: MOH VLP binding to B antigen. Set-up: species or system Norovirus. To be noted: MOH VLP binding to type B saliva; read-out: EC50 rMOH B.
Description: as §1, §2, §3, §4, §5

Data set [8] addresses VA207 binding to the Lewis antigens. As to the kind of experiment: Saliva-based blocking EIA: VA207 VLP binding to Lewis antigens. Set-up: species or system Norovirus. To be noted: VA207 VLP binding to Lewis antigen; read-out: EC50 rVA207 Le.
Description: as §1, §2, §3, §4, §5

Data set [9] concerns Norwalk virus binding to the A antigen. As to the kind of experiment: Saliva-based blocking EIA: Norwalk virus VLP binding to A antigen. To be noted: for pEC50: Norwalk VLP binding to A antigen, read-out: EC50 rNorwalk A. Set-up: species or system Norovirus.
Description: as §1, §2, §3, §4, §5

The structures appear in SMILES notation. pEC50: −log10 of the molar value. Bounds are passed on as bounds.

In the case of `Cc1ccc(NC(=O)CC(c2ccccc2)c2ccccc2)cc1C` [Compound 9], the pEC50 is 4.93 in data set [1]; under 4.00 in [2]; under 4.00 in data set [3]; 4.32 in [5]; under 4.00 in data set [6]; under 4.00 in [7]. For the same compound, the pEC50 in [8] and in data set [9] was under 4.00 throughout. The compound further came in with a CC50 in data set [4] of 40.3 µM. The “inhibition of VA387 binding to the H antigen” value in [5] is reported as “revealed inhibitory activity”. Further, the “inhibition of VA387 binding to the B antigen” value (“inhibition … to the B antigen” for short) in [6] is on record as “did not have any inhibitory activity”.
Consider `Oc1ccc(C=Nc2nccs2)c(O)c1` [Compound 7], for which the pEC50 in data set [1] was 5.02; in data set [2], under 4.00; in data set [3], under 4.00; in [5], 5.12; in [6], 4.59; in data set [7] it was under 4.00. Moreover, the pEC50 in data set [8] and in data set [9] was under 4.00 each time. Besides, the “inhibition of VA387 binding to the H antigen” value in data set [5] is “dose-dependant inhibition”. Further, the “inhibition … to the B antigen” value in data set [6] is reported as “dose-dependant inhibition”.
`CCCCc1ccc(NC(=O)c2ccc(C)cc2)cc1` [Compound 12]: the pEC50 was 4.89 in [1]; under 4.00 in data set [2]; 4.32 in data set [3]; 4.55 in data set [5]; 4.49 in [6]; under 4.00 in [7]. For the same compound, the pEC50 in data set [8] is under 4.00; in data set [9], 4.28. The “inhibition of VA387 binding to the H antigen” value in data set [5] is recorded as “dose-dependant inhibition”. Moreover, the “inhibition … to the B antigen” value in data set [6] is listed as “dose-dependant inhibition”. In addition, the “blocking of Norwalk virus binding to the A antigen” value (“blocking of Norwalk virus binding” below) in data set [9] is recorded as “blocked”.
As for `CCC[n+]1cc(-c2ccccc2)nc(N2CCOCC2)n1.[I-]` [Compound 1], the pEC50 in data set [1] is 5.66; in data set [2], under 4.00; in [3], 4.72; in [5], 5.17; in data set [6], 5.24; in data set [7], under 4.00. Further, the pEC50 in data set [8] was under 4.00; in [9], 4.81. The “inhibition of Norwalk virus binding to the H antigen” value (“inhibition of Norwalk virus binding” for short) in data set [3] is on record as “inhibited”. Moreover, in data set [5], the “inhibition of VA387 binding to the H antigen” value was “dose-dependant inhibition”. In [6], the “inhibition … to the B antigen” value is reported as “dose-dependant inhibition”. Also, the “blocking of Norwalk virus binding” value in data set [9] is listed as “blocked”.
With `CCOC(=O)C1=C(C)OC(N)=C(C#N)C1c1ccc(OCc2ccc(C)cc2)c([N+](=O)[O-])c1` (centres unmarked) [Compound 2], the pEC50 in data set [1] is 5.32; in data set [2], 4.78; in data set [3], 4.61; in data set [5], 4.92; in [6], 4.73; in data set [7] it was 4.88. Further, the pEC50 was under 4.00 in data set [8] and 4.64 in data set [9]. The “inhibition of Norwalk virus binding” value in [3] is “inhibited”. Moreover, the midpoint of cytotoxicity in data set [4], the CC50, lay at 78.6 µM. Besides, in [5], the “inhibition of VA387 binding to the H antigen” value is given as “dose-dependant inhibition”. In addition, the “inhibition … to the B antigen” value in data set [6] is on record as “dose-dependant inhibition”. Moreover, the “blocking of Norwalk virus binding” value in data set [9] is “blocked”.
As to `O=CC(=O)c1ccc2c(c1)Cc1cc(C(=O)C=O)ccc1-2` [Compound 6], the pEC50 is 5.03 in data set [1]; under 4.00 in data set [2]; under 4.00 in data set [3]; 4.39 in data set [5]; 4.35 in [6]; under 4.00 in data set [7]. In addition, the pEC50 in data set [8] and in data set [9] was under 4.00 in each case. The compound also showed a CC50 in [4] of 52.7 µM. Moreover, in data set [5], the “inhibition of VA387 binding to the H antigen” value is “dose-dependant inhibition”. Also, the “inhibition … to the B antigen” value in data set [6] is on record as “dose-dependant inhibition”.
Consider `O=C(C(=O)c1ccc(C(=O)c2ccc(C(=O)C(=O)c3ccc(Sc4ccccc4)cc3)cc2)cc1)c1ccc(Sc2ccccc2)cc1` [Compound 11], for which the pEC50 in data set [1] was 4.89; in data set [2], under 4.00; in [3], under 4.00; in data set [5], 4.58; in [6] it was 4.45; in [7] it was under 4.00. Also, the pEC50 in [8] and in [9] was under 4.00 in each case. In data set [5], the “inhibition of VA387 binding to the H antigen” value was “dose-dependant inhibition”. For the same compound, the “inhibition … to the B antigen” value in [6] is recorded as “dose-dependant inhibition”.
Regarding `FC(F)(F)c1ccc(N/N=C/c2cc(Br)cs2)cc1` [Compound 15], the negative logarithm of the EC50 (pEC50) in [1] was 4.85; in data set [2], under 4.00; in [3], under 4.00; in data set [5] it was under 4.00; in data set [6], under 4.00; in [7], under 4.00. The pEC50 in data set [8] is under 4.00; in data set [9] it was 4.65. Also, the “inhibition of Norwalk virus binding” value in data set [3] was “inhibited”. The compound further registered a CC50 in data set [4] of 7.6 µM. Further, the “inhibition of VA387 binding to the H antigen” value in data set [5] was “did not have any inhibitory activity”. In addition, the “inhibition … to the B antigen” value in data set [6] was “did not have any inhibitory activity”. In [9], the “blocking of Norwalk virus binding” value is “blocked”.
Take `CC(C)OC(=O)CC(=O)CSc1nc(-c2ccc(F)cc2)cc(-c2cccs2)c1C#N` [Compound 10]: the pEC50 in data set [1] is 4.93; in [2], under 4.00; in data set [3], 4.70; in data set [5] it was 5.12; in [6], 5.10; in data set [7] it was under 4.00. Further, the pEC50 was under 4.00 in data set [8] and 4.46 in data set [9]. Moreover, the “inhibition of Norwalk virus binding” value in [3] is “inhibited”. In data set [5], the “inhibition of VA387 binding to the H antigen” value is reported as “dose-dependant inhibition”. Moreover, the “inhibition … to the B antigen” value in data set [6] is given as “dose-dependant inhibition”. The “blocking of Norwalk virus binding” value in data set [9] is on record as “blocked”.
For the compound `O=C(/C=C/c1ccc(-c2cc(Cl)cc(Cl)c2)o1)c1cccs1` [Compound 8], the pEC50 in data set [1] is 4.96; in data set [2], under 4.00; in data set [3] it was under 4.00; in data set [5], under 4.00; in [6], under 4.00; in [7], under 4.00. In addition, the pEC50 in [8] and in data set [9] was under 4.00 each time. In addition, the “inhibition of VA387 binding to the H antigen” value in data set [5] was “did not have any inhibitory activity”. Besides, the “inhibition … to the B antigen” value in [6] was “did not have any inhibitory activity”.
`C=C(SCCNC(=O)NCCCCCCNC(=O)NCCSc1ccccc1O)C(C)=CC` [Compound 4]: the pEC50 was 5.09 in data set [1]; under 4.00 in data set [2]; 4.65 in data set [3]; 4.85 in data set [5]; 4.88 in [6]; under 4.00 in data set [7]. Also, the pEC50 in data set [8] was under 4.00; in [9] it was 4.85. Also, the “inhibition of Norwalk virus binding” value in data set [3] was “inhibited”. For the same compound, in [5], the “inhibition of VA387 binding to the H antigen” value is on record as “dose-dependant inhibition”. For the same compound, the “inhibition … to the B antigen” value in [6] was “dose-dependant inhibition”. For the same compound, the “blocking of Norwalk virus binding” value in [9] is “blocked”.

(Values after patent publication US20110152263A1, “COMPOSITION AND METHOD FOR INHIBITING NOROVIRUS INFECTION” (priority 2006, published 2011).)
